According to patent US11708318B2, “Polymorphic forms of RAD1901-2HCL” (Radius Pharmaceuticals, Inc., priority 2017, dated 2023):
Entries after “also recorded” stand apart in the source; their conditions may differ.

What was measured:
Assay type in all cases: physicochemical
[1] = Storage at elevated temperature/humidity, analysed by XRPD
Experimental: Samples 1 and 2 were characterized by XRPD at various conditions. XRPD patterns were collected for the samples at ambient condition as the samples were provided; at variable temperature (VT-XRPD); at variable humidity (VH-XRPD); after the samples were exposed to 40° C./75% RH for 1 week and 25° C./97% RH for 1 week, respectively; and after a GVS measurement wherein the samples were exposed to 0-90% RH. Samples 1 and 2 were also characterized by ^1H NMR, TGA, DSC, KF, IC, GVS (exposed to 0-90% RH), PLM, SEM, and HPLC (Table 5).

[2] = Gravimetric Vapour Sorption (GVS), with XRPD of the recovered sample; conditions: for Hygroscopicity (GVS): 0-90% RH
Experimental: Sorption isotherms were obtained using a SMS DVS Intrinsic moisture sorption analyzer, controlled by DVS Intrinsic Control software v1.0.1.2 (or v 1.0.1.3). The sample temperature was maintained at 25° C. by the instrument controls. The humidity was controlled by mixing streams of dry and wet nitrogen, with a total flow rate of 200 ml/min. The relative humidity was measured by a calibrated Rotronic probe (dynamic range of 1.0-100% RH), located near the sample. The weight change, (mass relaxation) of the sample as a function of % RH was constantly monitored by the microbalance (accuracy ±0.005 mg).
A sample (e.g., 20 mg) was placed in a tared mesh stainless steel basket under ambient conditions. The sample was loaded and unloaded at 40% RH and 25° C. (typical room conditions). A moisture sorption isotherm was performed as outlined below (2 scans giving 1 complete cycle). Standard isotherms were performed at 25° C. at 10% RH intervals over a 0-90% RH range. Data analysis was carried out using Microsoft Excel using DVS Analysis Suite v6.2 (or 6.1 or 6.0).
In a cycle of 2 scans, the first scan was performed with adsorption of 40-90% RH, followed by a second scan with desorption of 90-0% RH and adsorption of 0-40% RH, with intervals of 10% RH, at 25° C. with stability dm/dt of 0.002% ° C./min. The sorption time was 6 hr time out.
The sample was recovered after completion of the isotherm and re-analyzed by XRPD. Custom moisture sorption methods were also performed at 25° C. at fixed % RH intervals over a 0-95% RH range, with the purpose to fully understand the sorption/desorption behavior of the compound under elevated conditions.
To further explore the humidity behavior of Sample 1 (Form 1) upon exposure to high RH (>90%), custom GVS experiments were designed and carried out. Initially, the sample was treated by holding at 90 and then 95% RH for ˜12 hours to see if hydrate formation could be observed (HighRH method of Steps 1 and 2 of Table 2, FIGS. 6C-6D).
To test the stability of the hydrated state, GVS method HighRH_Desorp_3 was designed with a desorption step and subsequent adsorption (see Table 2 with steps 1-4, FIGS. 6E-6F).
Finally, to ensure complete conversion to the anhydrous and hydrated forms, a GVS experiment was designed to increase both the length of the desorption step at 0% RH, and the adsorption step at 95% RH, respectively (Table 3). Based on the weight stabilization observed in the kinetic plots for Sample 1 in HighRH and HighRH_Desorp_3 methods discussed above (FIGS. 6D and 6F), a holding time of 800 mins at 0% RH and 1600 mins at 95% RH were chosen. A double cycle was also recorded for this experiment to observe whether the sample would return to Form 1 or form a mixed anhydrous/hydrated species (see Table 3, FIGS. 6G-6H).

[3] = Solubility assessment of amorphous RAD1901-2HCl; conditions: thermodynamic from solid, read-out: Solubility assessment 10 vol.
Experimental: In a scale-up preparation of amorphous RAD1901-2HCl, RAD1901-2HCl (600 mg) was dissolved in water (20 vol., 12 mL) and filtered to remove any remaining solid particles. The solution was then aliquoted into 24 HPLC vials, frozen in a dry ice/acetone bath and the solvent removed by lyophilisation. Solids produced by lyophilization were used directly in solubility assessment and polymorph screens in Example 4.
Amorphous RAD1901-2HCl prepared as described in Example 3B was used directly in solubility assessment and polymorph screens (Table 15). XRPD patterns were further obtained for amorphous RAD1901-2HCl prepared using other solvents.

[4] = Solubility assessment of amorphous RAD1901-2HCl in water/organic solvent system; conditions: organic solvent or mixture, thermodynamic from solid
Experimental: Samples of amorphous RAD1901-2HCl were prepared in water/organic solvent mixtures containing varying ratios of water. The organic solvents chosen were anhydrous ethanol, methanol and ethyl acetate. The percentage of water in the water/organic solvent mixtures was varied between 0 and 10% (v/v) in order to place a limit on the level of water that can be present during production processes, and to retain formation of Form 1. Above this water activity limit, the hydrated Form 3 will be obtained, as shown by GVS experiments (see FIGS. 6G and 20A). It should be noted that samples prepared in ethyl acetate, were either slurried in anhydrous ethyl acetate, or in water saturated ethyl acetate.
The water activity values for each water/organic solvent mixture are provided in Table 16, and were calculated using the reference given in Bell, Halling, Enzyme Microbiol. Technol. 1997, 20, 471, incorporated herein by reference.

Q: Which “Solid form after exposure to <40% RH for 8 hr” value ([1]; <40% RH, 8 hr) does the source give for `CCNCCc1ccc(CN(CC)c2cc(OC)ccc2[C@@H]2CCc3cc(O)ccc3C2)cc1.Cl.Cl` [Form 3] here?
A: The value was “Form 2”.

Q: Which results are given for `CCNCCc1ccc(CN(CC)c2cc(OC)ccc2[C@@H]2CCc3cc(O)ccc3C2)cc1.Cl.Cl` [Form 1]?
A: Hygroscopicity (GVS) [2]: relatively non-hygroscopic; also recorded: low hygroscopicity; Solid form on exposure to high RH (>90%) by GVS ([2]; above 90% RH): irreversibly converted to the hydrate Form 3; also recorded: started converting to the hydrate Form 3; XRPD post GVS (uptake 0-90% RH) ([2]; after exposure to 0-90% RH): stable; also recorded: No changes; Hygroscopicity compared with Form 2 ([2]; than Form 2): lower hygroscopicity; XRPD after storage at 25° C./97% RH for 1 week ([1]; 25° C./97% RH, 1 week): converted to Form 3; also recorded: conversion towards a hydrated state Form 3; XRPD after storage at 40° C./75% RH for 1 week ([1]; 40° C./75% RH, 1 week): stable; Solid form on prolonged exposure to high RH (>90%) ([1]; high RH (>90%), e.g. for 7 days): converted to the hydrate Form 3; Stability of the polymorphic form (overall characterization) ([1]; relative to heat and/or humidity): stable

Q: With `CCNCCc1ccc(CN(CC)c2cc(OC)ccc2[C@@H]2CCc3cc(O)ccc3C2)cc1.Cl.Cl` [amorphous RAD1901-2HCl] as the compound, how does the solubility ([3]; organic solvent or mixture, 1,2-dimethoxyethane, sample ID B16) read?
A: The solubility was less than 100 mg/mL.

Q: And the solubility ([3]; organic solvent or mixture, 1,4-Dioxane, sample ID B14)?
A: The solubility was less than 100 mg/mL.

Q: And the solubility ([3]; organic solvent or mixture, 1-propanol, sample ID B8)?
A: Its solubility is less than 100 mg/mL.

Q: And the solubility ([3]; organic solvent or mixture, 2-propanol, sample ID B6)?
A: Its solubility is less than 100 mg/mL.

Q: And the solubility ([3]; organic solvent or mixture, 10% water/EtOH, sample ID B22)?
A: Its solubility is greater than 100 mg/mL.

Q: And the solubility ([3]; organic solvent or mixture, 10% water/IPA, sample ID B23)?
A: The solubility was less than 100 mg/mL.

Q: What about the solubility ([3]; organic solvent or mixture, 10% water/THF, sample ID B24) of the same compound?
A: The solubility was less than 100 mg/mL.

Q: What about the solubility ([3]; organic solvent or mixture, Acetone, sample ID B9) of the same compound?
A: The solubility was less than 100 mg/mL.

Q: What about the solubility ([3]; organic solvent or mixture, Acetonitrile, sample ID B20) of the same compound?
A: Its solubility is less than 100 mg/mL.

Q: And the solubility ([3]; organic solvent or mixture, Dichloromethane, sample ID B18)?
A: The solubility was less than 100 mg/mL.

Q: What about the solubility ([3]; organic solvent or mixture, Dimethyl sulfoxide, sample ID B11) of the same compound?
A: The solubility was greater than 100 mg/mL.

Q: And the solubility ([3]; organic solvent or mixture, Ethanol, sample ID B10)?
A: Its solubility is less than 100 mg/mL.

Q: And the solubility ([3]; organic solvent or mixture, Ethyl acetate, sample ID B3)?
A: Its solubility is less than 100 mg/mL.

Q: And the solubility ([3]; organic solvent or mixture, Isopropyl acetate, sample ID B4)?
A: Its solubility is less than 100 mg/mL.

Q: And the solubility ([3]; organic solvent or mixture, MEK, sample ID B7)?
A: Its solubility is less than 100 mg/mL.

Q: What about the solubility ([3]; organic solvent or mixture, MIBK, sample ID B5) of the same compound?
A: The solubility was less than 100 mg/mL.

Q: And the solubility ([3]; organic solvent or mixture, Methanol, sample ID B19)?
A: The solubility was less than 100 mg/mL.

Q: And the solubility ([3]; organic solvent or mixture, Nitromethane, sample ID B21)?
A: The solubility was less than 100 mg/mL.

Q: And the solubility ([3]; organic solvent or mixture, Propyl acetate, sample ID B2)?
A: Its solubility is less than 100 mg/mL.

Q: And the solubility ([3]; organic solvent or mixture, TBME, sample ID B13)?
A: The solubility was less than 100 mg/mL.

Q: What about the solubility ([3]; organic solvent or mixture, Tetrahydrofuran, sample ID B17) of the same compound?
A: Its solubility is less than 100 mg/mL.

Q: And the solubility ([3]; organic solvent or mixture, Toluene, sample ID B15)?
A: Its solubility is less than 100 mg/mL.

Q: What about the solubility ([3]; organic solvent or mixture, n-Heptane, sample ID B1) of the same compound?
A: Its solubility is less than 100 mg/mL.

Q: And the solubility ([3]; Water, sample ID B12)?
A: Its solubility is greater than 100 mg/mL.

Q: And the solubility ([4]; EtOH/H2O (90:10), EtOH/H2O (90:10), sample ID C1, read-out: Solubility assessment 10 vol.)?
A: Its solubility is greater than 100 mg/mL.

Q: And the solubility ([4]; EtOH/H2O (95:5), EtOH/H2O (95:5), sample ID C2, read-out: Solubility assessment 10 vol.)?
A: Its solubility is less than 100 mg/mL.

Q: And the solubility ([4]; EtOH/H2O (98:2), EtOH/H2O (98:2), sample ID C3, read-out: Solubility assessment 10 vol.)?
A: Its solubility is less than 100 mg/mL.

Q: What about the solubility ([4]; EtOH/H2O (99:1), EtOH/H2O (99:1), sample ID C4, read-out: Solubility assessment 10 vol.) of the same compound?
A: The solubility was less than 100 mg/mL.

Q: And the solubility ([4]; MeOH/H2O (90:10), MeOH/H2O (90:10), sample ID C5, read-out: Solubility assessment 10 vol.)?
A: The solubility was greater than 100 mg/mL.

Q: What about the solubility ([4]; MeOH/H2O (95:5), MeOH/H2O (95:5), sample ID C6, read-out: Solubility assessment 10 vol.) of the same compound?
A: Its solubility is greater than 100 mg/mL.

Q: And the solubility ([4]; MeOH/H2O (98:2), MeOH/H2O (98:2), sample ID C7, read-out: Solubility assessment 10 vol.)?
A: The solubility was less than 100 mg/mL.

Q: And the solubility ([4]; MeOH/H2O (99:1), MeOH/H2O (99:1), sample ID C8, read-out: Solubility assessment 10 vol.)?
A: Its solubility is less than 100 mg/mL.

Q: What about the solubility ([4]; anhydrous ethyl acetate, Ethyl acetate (anhydrous), sample ID C9, read-out: Solubility assessment 10 vol.) of the same compound?
A: The solubility was less than 100 mg/mL.

Q: And the solubility ([4]; anhydrous ethyl acetate, Ethyl acetate (anhydrous), sample ID C9, read-out: Solubility assessment 20 vol)?
A: The solubility was less than 50 mg/mL.

Q: And the solubility ([4]; anhydrous ethyl acetate, Ethyl acetate (anhydrous), sample ID C9, read-out: Solubility assessment 30 vol)?
A: The solubility was less than 33.3 mg/mL.

Q: What about the solubility ([4]; water-saturated ethyl acetate, Water-saturated ethyl acetate, sample ID C10, read-out: Solubility assessment 10 vol.) of the same compound?
A: The solubility was less than 100 mg/mL.

Q: What about the solubility ([4]; water-saturated ethyl acetate, Water-saturated ethyl acetate, sample ID C10, read-out: Solubility assessment 20 vol) of the same compound?
A: The solubility was less than 50 mg/mL.

Q: And the solubility ([4]; water-saturated ethyl acetate, Water-saturated ethyl acetate, sample ID C10, read-out: Solubility assessment 30 vol)?
A: The solubility was less than 33.3 mg/mL.

Q: Which results are given for `CCNCCc1ccc(CN(CC)c2cc(OC)ccc2[C@@H]2CCc3cc(O)ccc3C2)cc1.Cl.Cl` [Form 2]?
A: Hygroscopicity (GVS) [2]: hygroscopic; Solid form after exposure to >40% RH for 7 days ([1]; >40% RH, 7 days): Form 3
